# Results reported in US11883387B2, “PqsR inverse agonists” (HELMHOLTZ-ZENTRUM FÜR INFEKTIONSFORSCHUNG GMBH, priority 2018, dated 2024).
# Molecular target: PqsR (Pseudomonas aeruginosa, UniProt Q9I4X0)
# Assay: E. coli based β-galactosidase reporter gene assay (PqsR inverse agonistic activity)
# Format: cell-based
# Parameters: expressed in transfected cells; host or cells: Escherichia coli DH5α
# Description: Inhibition of pqsR-dependent gene expression of test compounds was determined in an E. coli based β-galactosidase reporter gene assay.[19] Escherichia coli DH5α was transfected with pEAL08-2 plasmid encoding pqsR under control of promoter tac and β-galactosidase reporter gene lacZ under control of promoter pqsA. Antagonistic effects of compounds were evaluated in the presence of/in competition to 50 nM PQS. A positive control was used to ensure the reliability of individual assays. First, PQS was diluted in methanol and added to the wells of a glass coated 96-deep-well plate, and the solvent was evaporated. Then, compounds were added in 5 μL DMSO to final concentrations of 0.001-10 μM. Overnight cultures of E. coli DH5a×pEAL08-2 were diluted 1:100 in LB medium with ampicillin (50 μg/ml) and incubated at 37° C. with shaking until it reached an OD600 of 0.2. Finally, 995 μL of culture was added to each well and the p-galactosidase activity was determined by ortho-nitrophenyl-p-galactoside conversion in permeabilized cells after a 2.5 h incubation period (37° C., 180 rpm). OD600, OD420, and OD550 were measured using POLARstar Omega (BMG Labtech, Ortenberg, Germany), and the activity was expressed as ratio of the slope of β-galactosidase activity between basal control (no PQS) and solvent control. IC50 values of antagonists were determined by variation of the concentration of the test compounds.
# Chain of PqsR (Q9I4X0 whole entry): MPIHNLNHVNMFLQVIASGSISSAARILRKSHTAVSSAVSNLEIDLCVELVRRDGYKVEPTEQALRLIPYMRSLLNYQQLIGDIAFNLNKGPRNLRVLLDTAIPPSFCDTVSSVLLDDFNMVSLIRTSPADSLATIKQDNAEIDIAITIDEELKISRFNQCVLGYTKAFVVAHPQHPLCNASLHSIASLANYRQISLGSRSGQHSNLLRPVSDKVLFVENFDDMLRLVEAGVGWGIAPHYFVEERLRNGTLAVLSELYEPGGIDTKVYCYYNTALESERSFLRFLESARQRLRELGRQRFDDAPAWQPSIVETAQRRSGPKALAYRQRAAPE
row,Structure (SMILES),IC50
1,"FC(F)(F)c1cc(NCc2cn(-c3cccc(CN4CCOCC4)c3)nn2)ccn1 [Compound 002, N-((1-(3-(Morpholinomethyl)phenyl)-1H-1,2,3-triazol-4-yl)methyl)-2-(trifluoromethyl)pyridin-4-amine]",251 to 1000 nM
2,"FC(F)(F)c1cc(NCc2cn(-c3cccc(Cl)c3)nn2)ccn1 [Compound 003, N-((1-(3-Chlorophenyl)-1H-1,2,3-triazol-4-yl)methyl)-2-(trifluoromethyl)pyridin-4-amine]",51 to 250 nM
3,"FC(F)(F)c1cc(NCc2cn(-c3ccc(Cl)cc3)nn2)ccn1 [Compound 008, N-((1-(4-chlorophenyl)-1H-1,2,3-triazol-4-yl)methyl)-2-(trifluoromethyl)pyridin-4-amine]",51 to 250 nM
4,"Fc1cccc(-n2cc(CNc3ccnc(C(F)(F)F)c3)nn2)c1 [Compound 009, N-((1-(3-Fluorophenyl)-1H-1,2,3-triazol-4-yl)methyl)-2-(trifluoromethyl)pyridin-4-amine]",251 to 1000 nM
5,"Fc1ccc(-n2cc(CNc3ccnc(C(F)(F)F)c3)nn2)cc1 [Compound 010, N-((1-(4-Fluorophenyl)-1H-1,2,3-triazol-4-yl)methyl)-2-(trifluoromethyl)pyridin-4-amine]",51 to 250 nM
6,"FC(F)(F)Oc1cccc(-n2cc(CNc3ccnc(C(F)(F)F)c3)nn2)c1 [Compound 011, N-((1-(3-(Trifluoromethoxy)phenyl)-1H-1,2,3-triazol-4-yl)methyl)-2-(trifluoromethyl)pyridin-4-amine]",51 to 250 nM
7,"N#Cc1ccc(-n2cc(CNc3ccnc(C(F)(F)F)c3)nn2)cc1 [Compound 013, 4-(4-(((2-(trifluoromethyl)pyridin-4-yl)amino)methyl)-1H-1,2,3-triazol-1-yl)benzonitrile]",251 to 1000 nM
8,"FC(F)(F)c1ccc(-n2cc(CNc3ccnc(C(F)(F)F)c3)nn2)cc1 [Compound 014, 2-(Trifluoromethyl)-N-((1-(4-(trifluoromethyl)phenyl)-1H-1,2,3-triazol-4-yl)methyl)pyridin-4-amine]",51 to 250 nM
9,"CSc1cccc(-n2cc(CNc3ccnc(C(F)(F)F)c3)nn2)c1 [Compound 015, N-((1-(3-(Methylthio)phenyl)-1H-1,2,3-triazol-4-yl)methyl)-2-(trifluoromethyl)pyridin-4-amine]",51 to 250 nM
10,"FC(F)(F)c1cc(NCc2cn(-c3ccc(CN4CCOCC4)cc3)nn2)ccn1 [Compound 019, N-((1-(4-(Morpholinomethyl)phenyl)-1H-1,2,3-triazol-4-yl)methyl)-2-(trifluoromethyl)pyridin-4-amine]",251 to 1000 nM
11,"Fc1ccc(-n2cc(CNc3ccnc(C(F)(F)F)c3)nn2)cc1F [Compound 020, N-((1-(3,4-Difluorophenyl)-1H-1,2,3-triazol-4-yl)methyl)-2-(trifluoromethyl)pyridin-4-amine]",51 to 250 nM
12,"COc1cc(-n2cc(CNc3ccnc(C(F)(F)F)c3)nn2)ccc1Br [Compound 023, N-((1-(4-Bromo-3-methoxyphenyl)-1H-1,2,3-triazol-4-yl)methyl)-2-(trifluoromethyl)pyridin-4-amine]",251 to 1000 nM
13,"Fc1cc(Br)ccc1-n1cc(CNc2ccnc(C(F)(F)F)c2)nn1 [Compound 024, N-((1-(4-Bromo-2-fluorophenyl)-1H-1,2,3-triazol-4-yl)methyl)-2-(trifluoromethyl)pyridin-4-amine]",51 to 250 nM
14,"Fc1ccc(-n2cc(CNc3ccnc(C(F)(F)F)c3)nn2)cc1Cl [Compound 027, N-((1-(3-Chloro-4-fluorophenyl)-1H-1,2,3-triazol-4-yl)methyl)-2-(trifluoromethyl)pyridin-4-amine]",251 to 1000 nM
15,"CN(c1ccccc1)c1ccc(-n2cc(CNc3ccnc(C(F)(F)F)c3)nn2)cc1 [Compound 029, N-((1-(4-(Methyl(phenyl)amino)phenyl)-1H-1,2,3-triazol-4-yl)methyl)-2-(trifluoromethyl)pyridin-4-amine]",51 to 250 nM
16,"FC(F)(F)c1cc(NCc2cn(-c3ccc(Oc4ccccn4)c(Cl)c3)nn2)ccn1 [Compound 034, N-((1-(3-Chloro-4-(pyridin-2-yloxy)phenyl)-1H-1,2,3-triazol-4-yl)methyl)-2-(trifluoromethyl)pyridin-4-amine]",≤ 50 nM
17,"FC(F)(F)c1cc(SCc2cn(-c3ccc(Cl)cc3)nn2)ccn1 [Compound 055, 4-(((1-(4-chlorophenyl)-1H-1,2,3-triazol-4-yl)methyl)thio)-2-(trifluoromethyl)pyridine]",251 to 1000 nM
18,"FC(F)(F)c1cc(SCc2cn(-c3ccc(Br)cc3)nn2)ccn1 [Compound 058, 4-(((1-(4-Bromophenyl)-1H-1,2,3-triazol-4-yl)methyl)thio)-2-(trifluoromethyl)pyridine]",51 to 250 nM

row,Structure (SMILES),IC50
1,"FC(F)(F)c1cc(SCc2cn(-c3ccc(Cl)c(Cl)c3)nn2)ccn1 [Compound 059, 4-(((1-(3,4-Dichlorophenyl)-1H-1,2,3-triazol-4-yl)methyl)thio)-2-(trifluoromethyl)pyridine]",51 to 250 nM
2,"FC(F)(F)c1nccc(SCc2cn(-c3ccc(Cl)cc3)nn2)n1 [Compound 060, 4-(((1-(4-chlorophenyl)-1H-1,2,3-triazol-4-yl)methyl)thio)-2-(trifluoromethyl)pyrimidine]",251 to 1000 nM
3,"COc1ccc(-n2cc(CSc3ccnc(C(F)(F)F)c3)nn2)cc1 [Compound 062, 4-(((1-(4-methoxyphenyl)-1H-1,2,3-triazol-4-yl)methyl)thio)-2-(trifluoromethyl)pyridine]",251 to 1000 nM
4,"Fc1cc(-n2cc(CSc3ccnc(C(F)(F)F)c3)nn2)ccc1OC(F)(F)F [Compound 064, 4-(((1-(3-fluoro-4-(trifluoromethoxy)phenyl)-1H-1,2,3-triazol-4-yl)methyl)thio)-2-(trifluoromethyl)pyridine]",51 to 250 nM
5,"FC(F)(F)c1cc(SCc2cnc(-c3ccc(Cl)cc3)s2)ccn1 [Compound 067, 2-(4-Chlorophenyl)-5-(((2-(trifluoromethyl)pyridin-4-yl)thio)methyl) thiazole]",251 to 1000 nM
6,"COc1c(C)cc(-c2ncc(CNc3ccnc(C(F)(F)F)c3)s2)cc1C [Compound 075, N-((2-(4-Methoxy-3,5-dimethylphenyl)thiazol-5-yl)methyl)-2-(trifluoromethyl)pyridin-4-amine]",251 to 1000 nM
7,"N#Cc1ccc(-c2nc(CNc3ccnc(C(F)(F)F)c3)cs2)cc1 [Compound 085, 4-(4-(((2-(Trifluoromethyl)pyridin-4-yl)amino)methyl)thiazol-2-yl)benzonitrile]",251 to 1000 nM
8,"COc1ccc(-c2nc(CNc3ccnc(C(F)(F)F)c3)cs2)cc1 [Compound 086, N-((2-(4-Methoxyphenyl)thiazol-4-yl)methyl)-2-(trifluoromethyl)pyridin-4-amine]",251 to 1000 nM
9,"FC(F)(F)c1cc(NCc2csc(-c3cccc(Oc4ccccc4)c3)n2)ccn1 [Compound 089, N-((2-(3-Phenoxyphenyl)thiazol-4-yl)methyl)-2-(trifluoromethyl)pyridin-4-amine]",51 to 250 nM
10,"O=C(c1cccc(-c2nc(CNc3ccnc(C(F)(F)F)c3)cs2)c1)C1CC1 [Compound 090, Cyclopropyl(3-(4-(((2-(trifluoromethyl)pyridin-4-yl)amino)methyl)thiazol-2-yl)phenyl)methanone]",251 to 1000 nM
11,"FC(F)(F)c1cc(NCc2ncc(-c3ccc(Cl)nc3)cn2)ccn1 [Compound 099, N-((5-(6-Chloropyridin-3-yl)pyrimidin-2-yl)methyl)-2-(trifluoromethyl)pyridin-4-amine]",251 to 1000 nM
12,"FC(F)(F)c1cc(SCc2ccc(-c3ccc(Oc4ccccc4)cc3)cn2)ccn1 [Compound 109, 4-(((5-(4-phenoxyphenyl)pyridin-2-yl)methyl)thio)-2-(trifluoromethyl)pyridine]",251 to 1000 nM
13,"FC(F)(F)c1cc(SCc2ccc(-c3ccc(Cl)nc3)cc2)ccn1 [Compound 110, 4-((4-(6-Chloropyridin-3-yl)benzyl)thio)-2-(trifluoromethyl)pyridine]",251 to 1000 nM
14,"FC(F)(F)c1cc(SCc2ccc(-c3cnc(Cl)nc3)cn2)ccn1 [Compound 113, 2-Chloro-5-(6-(((2-(trifluoromethyl)pyridin-4-yl)thio)methyl)pyridin-3-yl)pyrimidine]",251 to 1000 nM
15,"COc1ncc(-c2ccc(CSc3ccnc(C(F)(F)F)c3)nc2)cc1Cl [Compound 115, 5-Chloro-6-methoxy-6′-(((2-(trifluoromethyl)pyridin-4-yl)thio)methyl)-3,3′-bipyridine]",251 to 1000 nM
16,"FC(F)(F)c1cc(SCc2nc3cc(Cl)ccc3[nH]2)ccn1 [Compound 123, 5-Chloro-2-(((2-(trifluoromethyl)pyridin-4-yl)thio)methyl)-1H-benzo[d]imidazole]",251 to 1000 nM
17,"FC(F)(F)c1nc(Cl)cc(SCc2nc3cc(Oc4ccccc4)ccc3[nH]2)n1 [Compound 124, 2-(((6-Chloro-2-(trifluoromethyl)pyrimidin-4-yl)thio)methyl)-5-phenoxy-1H-benzo[d]imidazole]",251 to 1000 nM
18,"COc1cc(SCc2nc3cc(Oc4ccccc4)ccc3[nH]2)nc(C(F)(F)F)n1 [Compound 126, 2-(((6-Methoxy-2-(trifluoromethyl)pyrimidin-4-yl)thio)methyl)-5-phenoxy-1H-benzo[d]imidazole]",251 to 1000 nM
